Common to all, as to format: in vivo
The test system of assay [1] is barnyardgrass (Echinochloa crus-galli). Nature of the assay: Test A preemergence. As to conditions: Echinochloa crus-galli, pre-emergence, 240 h, preemergence; for pest or weed control at 125 g/ha: 125 g ai/ha; for pest or weed control at 500 g/ha: 500 g ai/ha. A digest of the protocol:
(§1)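 Visual injury, scored on a 0–100 scale relative to untreated controls, was recorded about 10 d after application. Treatments were a preemergence soil spray over planted seeds or a postemergence spray on plants at the one- to two-leaf stage, 2 to 10 cm tall, all in loam soil–sand blend in the greenhouse.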

The test system of the next assay is Kochia (Kochia scoparia). Briefly: Test A preemergence. As to conditions: Bassia scoparia, pre-emergence, 240 h, preemergence; for pest or weed control at 125 g/ha: 125 g ai/ha; for pest or weed control at 500 g/ha: 500 g ai/ha. A digest of the protocol: as §1
The test system of assay [2] is giant foxtail (Setaria faberii). Briefly: Test A preemergence. As to conditions: Setaria faberi, pre-emergence, 240 h, preemergence; for pest or weed control at 125 g/ha: 125 g ai/ha; for pest or weed control at 500 g/ha: 500 g ai/ha. A digest of the protocol: as §1
The subject of assay [3] is pigweed (Amaranthus retroflexus). Briefly: Test A preemergence. As to conditions: Amaranthus retroflexus, pre-emergence, 240 h, preemergence; for pest or weed control at 125 g/ha: 125 g ai/ha; for pest or weed control at 500 g/ha: 500 g ai/ha.
Assay [4] concerns ragweed (common ragweed, Ambrosia elatior). Nature of the assay: Test A preemergence. As to conditions: Ambrosia artemisiifolia, pre-emergence, 240 h, preemergence; for pest or weed control at 125 g/ha: 125 g ai/ha; for pest or weed control at 500 g/ha: 500 g ai/ha. A digest of the protocol:
as §1

Assay [5] relates to ryegrass, Italian (Italian ryegrass, Lolium multiflorum). Briefly: Test A preemergence. As to conditions: Lolium multiflorum, pre-emergence, 240 h, preemergence; for pest or weed control at 125 g/ha: 125 g ai/ha; for pest or weed control at 500 g/ha: 500 g ai/ha. A digest of the protocol:
as §1

Assay [6] concerns barnyardgrass (Echinochloa crus-galli). Briefly: Test A postemergence. As to conditions: Echinochloa crus-galli, post-emergence, 240 h; for pest or weed control at 125 g/ha: 125 g ai/ha. In short, it runs like this: as §1
In assay [7] the test system is giant foxtail (Setaria faberii). Briefly: Test A postemergence. As to conditions: Setaria faberi, post-emergence, 240 h; for pest or weed control at 125 g/ha: 125 g ai/ha. In short, it runs like this:
as §1

Assay [8] deals with pigweed (Amaranthus retroflexus). Briefly: Test A postemergence. As to conditions: Amaranthus retroflexus, post-emergence, 240 h; for pest or weed control at 125 g/ha: 125 g ai/ha. In short, it runs like this: as §1
In assay [9] the test system is ryegrass, Italian (Italian ryegrass, Lolium multiflorum). Nature of the assay: Test A postemergence. As to conditions: Lolium multiflorum, post-emergence, 240 h; for pest or weed control at 125 g/ha: 125 g ai/ha. A digest of the protocol:
as §1

Assay [10] concerns barnyardgrass (Echinochloa crus-galli). Briefly: Test B flooded paddy test. As to conditions: Echinochloa crus-galli, Flood, 250 g ai/ha, read-out: Barnyardgrass plant response rating. A digest of the protocol: (§2)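 Response scored visually against untreated controls, 0 = no effect and 100 = complete control, 13–15 d after treatment in the greenhouse. Compounds added to paddy water held 3 cm above soil surface. Treatment given at 2-leaf stage.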

For another assay, the system named is rice (Oryra sativa). Nature of the assay: Test B flooded paddy test. As to conditions: Oryza sativa, Flood, 250 g ai/ha, read-out: Rice plant response rating. In short, it runs like this:
as §2

For assay [11], the system named is ducksalad (Heteranthera limosa). Briefly: Test B flooded paddy test. As to conditions: Heteranthera limosa, Flood, 250 g ai/ha, read-out: Ducksalad plant response rating. A digest of the protocol: as §2
In assay [12] the test system is sedge, umbrella (small-flower umbrella sedge, Cyperus difformis). Briefly: Test B flooded paddy test. As to conditions: Cyperus difformis, Flood, 250 g ai/ha, read-out: Sedge, Umbrella plant response rating. In short, it runs like this: as §2
The mark [13] stands for this setting: scale of 0 to 100 where 0 is no effect and 100 is complete control.
Where [14] appears, read: 0 to 100 scale where 0 is no effect and 100 is complete control.

Read-outs that look alike come from different tables or passages of the source.

Consider `Cc1cc([C@H]2CNC(=O)[C@@H]2C(=O)Nc2ccccc2F)ccc1F` [Compound 717], for which the pest or weed control at 125 g/ha amounted to 90% in assay [1] (visual rating after approx. 10 d, 0 to 100 scale where 0 is no effect and 100 is complete control, read-out: Plant response rating, Barnyardgrass); 0% in the assay with Kochia (Kochia scoparia) (visual rating after approx. 10 d, 0 to 100 scale where 0 is no effect and 100 is complete control, read-out: Plant response rating, Kochia); 80% in assay [2] (visual rating after approx. 10 d, 0 to 100 scale where 0 is no effect and 100 is complete control, read-out: Plant response rating, Foxtail, Giant); 0% in assay [3] (visual rating after approx. 10 d, 0 to 100 scale where 0 is no effect and 100 is complete control, read-out: Plant response rating, Pigweed); 0% in assay [4] (visual rating after approx. 10 d, 0 to 100 scale where 0 is no effect and 100 is complete control, read-out: Plant response rating, Ragweed); 0% in assay [5] (visual rating after approx. 10 d, 0 to 100 scale where 0 is no effect and 100 is complete control, read-out: Plant response rating, Ryegrass, Italian). Also, the pest or weed control at 125 g/ha is 90% in [6] (postemergence, visual injury after approximately 10 d, 0 to 100 scale (0 no effect, 100 complete control), read-out: Plant response rating, Barnyardgrass); 30% in assay [7] (postemergence, visual injury after approximately 10 d, 0 to 100 scale (0 no effect, 100 complete control), read-out: Plant response rating, Foxtail, Giant); 0% in assay [8] (postemergence, visual injury after approximately 10 d, 0 to 100 scale (0 no effect, 100 complete control), read-out: Plant response rating, Pigweed); 0% in assay [9] (postemergence, visual injury after approximately 10 d, 0 to 100 scale (0 no effect, 100 complete control), read-out: Plant response rating, Ryegrass, Italian). The pest or weed control at 500 g/ha in assay [1] (0 to 100 scale, 0 = no effect, 100 = complete control, read-out: Plant response rating, Barnyardgrass) stood at 90%; in the assay with Kochia (Kochia scoparia) (0 to 100 scale, 0 = no effect, 100 = complete control, read-out: Plant response rating, Kochia), 60%; in [2] (0 to 100 scale, 0 = no effect, 100 = complete control, read-out: Plant response rating, Foxtail, Giant), 90%; in assay [3] (0 to 100 scale, 0 = no effect, 100 = complete control, read-out: Plant response rating, Pigweed) it was 30%; in [4] (0 to 100 scale, 0 = no effect, 100 = complete control, read-out: Plant response rating, Ragweed) it was 40%; in assay [5] (0 to 100 scale, 0 = no effect, 100 = complete control, read-out: Plant response rating, Ryegrass, Italian), 30%. Further, the pest or weed control at 250 g/ha in assay [10] (setting [13]) was 60%; in the assay with rice (Oryra sativa) (setting [13]), 0%; in [11] (setting [13]) it was 100%; in [12] (setting [13]), 0%.
On to `Cc1c(F)cccc1NC(=O)[C@H]1C(=O)NC[C@@H]1c1cccc2c1OC(F)(F)O2` [Compound 1305], for which the pest or weed control at 125 g/ha in assay [1] (visual injury rating, 0 to 100 scale where 0 is no effect and 100 is complete control, approximately 10 d, read-out: Barnyardgrass plant response rating) was determined as 70%; in the assay with Kochia (Kochia scoparia) (visual injury rating, 0 to 100 scale where 0 is no effect and 100 is complete control, approximately 10 d, read-out: Kochia plant response rating), 0%; in assay [2] (visual injury rating, 0 to 100 scale where 0 is no effect and 100 is complete control, approximately 10 d, read-out: Foxtail, Giant plant response rating), 90%; in [3] (visual injury rating, 0 to 100 scale where 0 is no effect and 100 is complete control, approximately 10 d, read-out: Pigweed plant response rating), 0%; in assay [4] (visual injury rating, 0 to 100 scale where 0 is no effect and 100 is complete control, approximately 10 d, read-out: Ragweed plant response rating), 0%; in assay [5] (visual injury rating, 0 to 100 scale where 0 is no effect and 100 is complete control, approximately 10 d, read-out: Ryegrass, Italian plant response rating), 0%. Also, the pest or weed control at 125 g/ha stood at 60% in assay [6] (Postemergence, visual rating about 10 d after treatment, read-out: Barnyardgrass plant response rating (0 to 100 scale, 0 no effect, 100 complete control)); 80% in assay [7] (Postemergence, visual rating about 10 d after treatment, read-out: Foxtail, Giant plant response rating (0 to 100 scale)); 0% in [8] (Postemergence, visual rating about 10 d after treatment, read-out: Pigweed plant response rating (0 to 100 scale)); 0% in [9] (Postemergence, visual rating about 10 d after treatment, read-out: Ryegrass, Italian plant response rating (0 to 100 scale)). Further, the pest or weed control at 500 g/ha in [1] (0 to 100 scale where 0 is no effect and 100 is complete control, read-out: Barnyardgrass plant response rating) was found to be 90%; with Kochia (Kochia scoparia) (0 to 100 scale where 0 is no effect and 100 is complete control, read-out: Kochia plant response rating), 0%; in assay [2] (0 to 100 scale where 0 is no effect and 100 is complete control, read-out: Foxtail, Giant plant response rating) it was 90%; in [3] (0 to 100 scale where 0 is no effect and 100 is complete control, read-out: Pigweed plant response rating) it was 0%; in [4] (0 to 100 scale where 0 is no effect and 100 is complete control, read-out: Ragweed plant response rating), 0%; in assay [5] (0 to 100 scale where 0 is no effect and 100 is complete control, read-out: Ryegrass, Italian plant response rating), 0%. Moreover, the pest or weed control at 500 g/ha in assay [6] (Postemergence, 500 g ai/ha, visual injury, 0 to 100 scale (0 no effect, 100 complete control), approx. 10 d, read-out: Plant response rating, Barnyardgrass) is 80%; in assay [7] (Postemergence, 500 g ai/ha, visual injury, 0 to 100 scale (0 no effect, 100 complete control), approx. 10 d, read-out: Plant response rating, Foxtail, Giant) it was 90%; in [8] (Postemergence, 500 g ai/ha, visual injury, 0 to 100 scale (0 no effect, 100 complete control), approx. 10 d, read-out: Plant response rating, Pigweed), 0%; in assay [9] (Postemergence, 500 g ai/ha, visual injury, 0 to 100 scale (0 no effect, 100 complete control), approx. 10 d, read-out: Plant response rating, Ryegrass, Italian), 0%. For the same compound, the pest or weed control at 250 g/ha in assay [10] (setting [14]) is 20%; with rice (Oryra sativa) (setting [14]) it was 0%; in assay [11] (setting [14]) it was 70%; in assay [12] (setting [14]), 0%.

The record behind these values is patent US12077503B2, “Substituted cyclic amides and their use as herbicides” (FMC CORPORATION, priority 2015, dated 2024).
